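A five-concentration, 48-hour dose response in 96-well plates underlies each endpoint, interpolated linearly between surrounding concentrations. The concentration for full growth arrest is given as TGI.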
How the values were obtained:
Experiment in all cases: growth of human tumour cells (NCI), 48 h
SNB-78 CNS = tested on: SNB-78 CNS
ACHN renal = tested on: ACHN renal
SK-OV-3 ovarian = tested on: SK-OV-3 ovarian
NCI-H522 lung = tested on: NCI-H522 lung
NCI-H226 lung = tested on: NCI-H226 lung
MOLT-4 leukemia = tested on: MOLT-4 leukemia
786-0 renal = tested on: 786-0 renal
DMS 114 small cell lung = tested on: DMS 114 small cell lung
U251 CNS = tested on: U251 CNS
TK-10 renal = tested on: TK-10 renal
HT29 colon = tested on: HT29 colon
NCI-H460 lung = tested on: NCI-H460 lung
HOP-62 NSCLC = tested on: HOP-62 NSCLC
LOX IMVI melanoma = tested on: LOX IMVI melanoma
RXF-631 renal = tested on: RXF-631 renal
SNB-75 CNS = tested on: SNB-75 CNS
SK-MEL-2 melanoma = tested on: SK-MEL-2 melanoma
DMS 273 small cell lung = tested on: DMS 273 small cell lung
NCI-H23 lung = tested on: NCI-H23 lung
SF-295 CNS = tested on: SF-295 CNS
SR leukemia = tested on: SR leukemia
HL-60(TB) leukemia = tested on: HL-60(TB) leukemia
MALME-3M melanoma = tested on: MALME-3M melanoma
SK-MEL-28 melanoma = tested on: SK-MEL-28 melanoma
M19-MEL melanoma = tested on: M19-MEL melanoma
HCT-15 colon = tested on: HCT-15 colon
RPMI-8226 leukemia = tested on: RPMI-8226 leukemia
K-562 leukemia = tested on: K-562 leukemia
A549 NSCLC = tested on: A549 NSCLC
EKVX NSCLC = tested on: EKVX NSCLC
UACC-62 melanoma = tested on: UACC-62 melanoma
HCC-2998 colon = tested on: HCC-2998 colon
SNB-19 CNS = tested on: SNB-19 CNS
CCRF-CEM leukemia = tested on: CCRF-CEM leukemia
OVCAR-3 ovarian = tested on: OVCAR-3 ovarian
RXF 393 renal = tested on: RXF 393 renal
OVCAR-5 ovarian = tested on: OVCAR-5 ovarian
KM20L2 colon = tested on: KM20L2 colon
UO-31 renal = tested on: UO-31 renal
SN12C renal = tested on: SN12C renal
SW-620 colon = tested on: SW-620 colon
XF 498 CNS = tested on: XF 498 CNS
IGROV1 ovarian = tested on: IGROV1 ovarian
LXFL 529 NSCLC = tested on: LXFL 529 NSCLC
A498 renal = tested on: A498 renal
SF-268 CNS = tested on: SF-268 CNS
SF-539 CNS = tested on: SF-539 CNS
OVCAR-4 ovarian = tested on: OVCAR-4 ovarian
OVCAR-8 ovarian = tested on: OVCAR-8 ovarian
DLD-1 colon = tested on: DLD-1 colon
UACC-257 melanoma = tested on: UACC-257 melanoma
KM12 colon = tested on: KM12 colon
M14 melanoma = tested on: M14 melanoma
SK-MEL-5 melanoma = tested on: SK-MEL-5 melanoma
COLO 205 colon = tested on: COLO 205 colon

Measured: TGI

COc1ccc(OC(C)C(=O)O)c2c(=O)ccccc12 (stereo not given)
> 100 µM: all assays above

— PubChem BioAssay (NCI)
